Test results from a melting point compilation (Tetko et al.; mined from patent text by program, amines drawn as free bases though some values may be those of a salt).

With `Cc1oncc1C(=O)Nc1ccc(-n2nc(C(F)(F)F)cc2C(F)(F)F)cc1` the melting point was 163 to 167 °C.
`CN(C#N)c1ccc(OCc2ccccc2)cc1` showed a melting point of 116 °C.
For `CC1(C)OC(=O)Nc2ccc(-c3ccc(F)c(F)c3)cc21`, the melting point was 207 to 208 °C.
Compound `CC(C)C(NC(=O)c1ccc(Cl)cc1)NC(=NC#N)Nc1cccnc1` (stereo unspecified) has a melting point of 182 to 184 °C.
In the case of `[N-]=[N+]=Nc1nc(N=[N+]=[N-])nc(-c2ccccc2)n1`, the melting point is reported as 130 to 132 °C.
`COC(=O)c1cc(I)cn1[Si](C(C)C)(C(C)C)C(C)C` showed a melting point of 81 to 83 °C.
In the case of `COc1c(C)cc(P(c2cc(C)c(OC)c(C)c2)c2cc(C)c(OC)c(C)c2)cc1C`, the melting point is reported as 176 °C.
With `CCCCC1(N(C)C)CCC(c2[nH]c3ccccc3c2Cc2ccccc2)CC1` (stereo unspecified) the melting point was 72 to 78 °C.
In the case of `CCn1nnn(-c2cc(O)c(Cl)cc2Cl)c1=O`, the melting point is reported as 149 to 150 °C.
Work on `CCNC(=O)c1ccsc1` yielded a melting point of 115 to 117 °C.
`CCOC(=O)C=Cc1ccc(OC)c2c1CC1(CCCC1)O2` showed a melting point of 81 to 91 °C.
For `CC(C)(C)c1cc(C(O)COc2ccc(C(=O)O)c(O)c2)cc(C(C)(C)C)c1O` (stereo unspecified), the melting point was 132 to 133 °C.
With `Cc1sc2nc(C=O)c(C)c(=O)n2c1C` the melting point was 170 to 173 °C.
Work on `NC1N=C(Cl)C=C(Cl)N1c1c([N+](=O)[O-])cc([N+](=O)[O-])cc1C(F)(F)F` (stereo unspecified) yielded a melting point of 170 to 173 °C.
Compound `Cc1cccc(CNC(=O)c2ccc3n2Cc2ccccc2N(C(=O)c2ccc(-c4ccccc4C)c(C)c2)C3)c1` has a melting point of 130 to 132 °C.
With `FC(F)(F)c1cc(Nc2nnc(CCCc3cccnc3)c3ccccc23)ccc1Cl` the melting point was 142 °C.
For `COc1ccc(-c2c(C)cc3c(O)cc(C)nn23)c(Cl)c1`, the melting point was 196 to 198 °C.
Compound `O=Cc1cc(Cl)cc2c1OCCC2` has a melting point of 83 to 86 °C.
`CCCc1nc(C(OCC)OCC)cc(NC(c2ccccc2)(c2ccccc2)c2ccccc2)c1F` gave a melting point of 111 to 112 °C.
For `CNC(=S)NS(=O)(=O)c1cc(CCNC(=O)c2cc(C(C)(C)C)ccc2OC)ccc1OCCOC`, the melting point was 61 °C.
Compound `O=C1O[C@H](c2ccccc2)[C@H](c2ccccc2)N[C@H]1Cc1ccccc1C1CCCCC1` has a melting point of 159 to 160 °C.
Work on `CC(=O)c1ccc(OC2CCOCC2)cc1O` yielded a melting point of 99 to 104 °C.
`O=S(=O)(Cl)c1ccc(-c2ccc(F)cc2)s1` gave a melting point of 82 to 85 °C.
`O=C(Cc1ccccc1O)N1C[C@@H]2SCCC(c3ccccc3)(c3ccccc3)[C@@H]2C1` (racemic) gave a melting point of 248 °C.
`Cc1cc(-c2cnn3c(C(F)(F)F)cc(-c4ccc(C(F)(F)F)cc4)nc23)cc(C)n1` showed a melting point of 257 °C.
With `O=c1c(CCCc2ccncc2)cc2cccnc2n1-c1ccc(Cl)c([N+](=O)[O-])c1` the melting point was 136 to 137 °C.
`CC(C)(C)NC(=O)c1nc(Cl)c(Cl)[nH]1` gave a melting point of 218 °C.
In the case of `O=C(Nc1ccc(-n2nc(C3CC3)cc2C2CC2)cc1)c1ccccc1`, the melting point is reported as 133 to 138 °C.
`COC1=CC2=CCC3C4CC(C)C(=O)C4(C)CCC3C2(C)CC1` (stereo unspecified) gave a melting point of 149 to 167 °C.
For `O=C1C=C(O)CC(c2ccc3c(c2)OCO3)C1` (stereo unspecified), the melting point was 181 °C.
Compound `Cc1c(Nc2c(C#N)cnc3scc(C)c23)ccc2[nH]ccc12` has a melting point of 261 °C.
For `COc1cccc(-c2c(C)c(NC(=O)CC(C)(C)C)c(C)c3c2OCC3c2ccc(C(C)C)cc2)c1` (stereo unspecified), the melting point was 209 to 210 °C.
In the case of `C[C@]12CC[C@H](O)CC1=CCC1C2CC[C@@]2(C)C1CC[C@@H]2c1c[nH]nn1` (stereo partly specified), the melting point is reported as 275 to 277 °C.
Compound `COc1cc2sc(=O)n(C(C)=O)c2cc1OC` has a melting point of 164 to 165 °C.
`Cc1c(C)c2c(c(C)c1NC(=O)C(C)C)CC(C)(C)O2` gave a melting point of 136 to 138 °C.
Compound `CC(C)(C)c1cc(C(=O)c2nccs2)cc2c1OCC2(C)C` has a melting point of 101 to 103 °C.
Work on `Nc1ccc(-c2nccc(-c3nc(-c4ccc(C(F)(F)F)cc4)cc(C(F)(F)F)n3)n2)cn1` yielded a melting point of 236 °C.
In the case of `CN(C)c1ccc(CC(OCC(O)CN2CCCCC2)C(=O)c2ccccc2)cc1` (stereo unspecified), the melting point is reported as 113 to 115 °C.
Compound `COc1ccc2c(c1OC)CCCC2=O` has a melting point of 103 to 104 °C.
`COc1ccc(-c2cc(=Nc3c(C)cc(C)cc3C)n(C)c(C)n2)cc1OC` gave a melting point of 163 to 168 °C.
`O=C(O)c1ccc2nc3c(c(=O)n2c1)CCC3=Cc1ccccc1` showed a melting point of 153 to 154 °C.
With `Cc1cc2ccccc2nc1NN` the melting point was 128 °C.
`Nc1nc2ccccc2c2c1nc(CC1CC1)n2CCOc1ccccc1` showed a melting point of 192 to 193 °C.
With `CCn1c(CC#N)ccc1C(=O)c1ccc(Cl)cc1` the melting point was 145 to 147 °C.
For `CCCCCCCC[C@@H](O)C(=O)Nc1cccc2nc(SC)ccc12`, the melting point was 119 to 120 °C.
In the case of `COc1ccc(C(=O)Nc2nc3cc4c(cc3[nH]2)NC(=O)C4(C)C)cc1`, the melting point is reported as > 300 °C.
For `C=CCC1=C(O)C(C)=CC(C)(OC(C)=O)C1C` (stereo unspecified), the melting point was 117 to 118 °C.
`Clc1ccc(C2(Cn3cncn3)CCC2)cc1` gave a melting point of 124 to 125 °C.
`O=C(O)C1CCN(c2ncc(NS(=O)(=O)c3ccc(Br)cc3)c(NCc3ccccc3)n2)CC1` gave a melting point of 136 to 138 °C.
Compound `COC(=O)c1cccc2c3nc4ccccc4[nH]c-3nc12` has a melting point of 251 to 255 °C.
`COc1ccc2ccc3c(c2c1)C=C(C#N)CO3` gave a melting point of 134 °C.
In the case of `CCCOc1ccc(S(=O)(=O)N2CCN(CC)C(C(=O)OCC)C2)cc1-c1nc2cc3nc[nH]c3cc2c(=O)[nH]1` (stereo unspecified), the melting point is reported as 158 to 163 °C.
`COCc1cccc(CC#N)c1[N+](=O)[O-]` showed a melting point of 34 to 36 °C.
With `CNC(=O)c1ccc(C=CC(=O)NCC(=O)N(C)c2ccc(C)c(CCl)c2C)cc1` the melting point was 232 °C.
With `CC(=O)C1=NN(c2ccc(C(=O)O)c(Cl)c2)C(=O)C1` the melting point was > 250 °C.
With `Cc1ccc(C(=O)NCCc2ccccn2)c(Nc2ccc3[nH]ncc3c2)n1` the melting point was 98 to 99 °C.
`COc1cc2c(Nc3ccc(Oc4ccccc4OC)cc3)c(C#N)cnc2cc1F` showed a melting point of 146 to 150 °C.
In the case of `O=C(NCc1ccc(Cl)cc1)c1cnc2ccc(O)cc2c1O`, the melting point is reported as 319 to 320 °C.
For `COc1ccc(-c2ccc(C(=O)Nc3ccc4cc(CN5CCCC5)cnc4c3)c(F)c2)cc1`, the melting point was 174 °C.
With `C#Cc1c2ccccc2nc2c(OC)ccc(OC)c12` the melting point was 155 to 157 °C.
For `CC(C)c1nc(COC(=O)N[C@@H](C)C(=O)N[C@@H](Cc2ccccc2)C[C@H](O)[C@H](Cc2ccccc2)NC(=O)OCc2cncs2)cs1`, the melting point was 59 to 61 °C.
`Fc1cccc(F)c1-c1ncc(-c2ccc(-c3ccc(OC(F)(F)F)cc3)cc2)nn1` showed a melting point of 225 to 230 °C.
Compound `O=C1c2ccccc2C(O)(c2ccc(F)cc2)C2=NC3CCCCC3N12` (stereo unspecified) has a melting point of 203 to 205 °C.
In the case of `Cc1cc(CNC(=O)c2cc(-c3ccc(C(C)(C)C)cc3)nn2CCN2CCOCC2)ccc1OC(C)(C)C(=O)O`, the melting point is reported as 140 °C.
`C=C(C)CC(OS(C)(=O)=O)C(Cl)(Cl)Cl` (stereo unspecified) showed a melting point of 60 to 61 °C.
Compound `O=C(O)c1cc2c(F)c(F)c(F)c(F)c2s1` has a melting point of 200 °C.
For `COC1c2ccccc2C2C(=O)N(Cc3ccccc3)C(=O)C12` (stereo unspecified), the melting point was 170 to 172 °C.
Compound `CC(C)CNC(=O)c1ccc(C2(F)CC2c2ccc(Cl)cc2)cc1` (stereo unspecified) has a melting point of 140 °C.
Compound `COc1cc2c(O)c3c4c(ccnc4c2cc1OC)CCC3` has a melting point of 218 °C.
In the case of `CCCCCc1n[nH]c(CCCCC)n1`, the melting point is reported as 66 to 68 °C.
In the case of `CCOc1ccccc1C(=O)C=Cc1ccc2ccccc2c1`, the melting point is reported as 96 to 97 °C.
With `CCN(CC)CCNC(=O)c1cc(Cl)c(N)cc1OCCSC` the melting point was 118 to 120 °C.
Compound `Cc1ccc(Oc2cccc(CC(=O)O)c2N)cc1C` has a melting point of 90 to 92 °C.
`CCOC(=O)COc1ccc(N)cc1` showed a melting point of 157 to 158 °C.
In the case of `CCOC(=O)CCCCCCn1c(=O)c(=O)[nH]c2cc(Br)ccc21`, the melting point is reported as 187 to 190 °C.
In the case of `CSc1ccc(-c2cc3ncnc(Nc4ccc5[nH]ccc5c4)c3s2)cc1`, the melting point is reported as 163 to 178 °C.
`CC(C)(CCCCOc1cc(-c2ccccc2)cc(-c2ccccc2)n1)c1nnn[nH]1` gave a melting point of 160 to 162 °C.
`CCOC(=O)CCC(=O)[C@H](Cc1ccccc1)NC(=O)c1ccccc1` showed a melting point of 112 to 114 °C.
Work on `Cc1cccc(C(=O)NC(Nc2c(Nc3cccnc3Cl)c(=O)c2=O)C(C)(C)C)c1` (stereo unspecified) yielded a melting point of 238 to 239 °C.
Compound `O=C(NC1CCOCC1)c1cnccc1C(F)(F)F` has a melting point of 149 to 150 °C.
With `CCCN1CCC23c4cccc(O)c4OC2C2CCC3(C1)C(COC)C2` (stereo unspecified) the melting point was 130 to 131 °C.
For `CC(C)=CCCC(C)=CCOc1ccc(OCC=C(C)CCC=C(C)C)c(C(=O)NCCc2ccncc2)c1`, the melting point was 59.1 to 60.6 °C.
For `CNC(=O)Cn1c(-c2ccc(Br)cc2)nc2cccnc21`, the melting point was 258 to 259 °C.
Compound `O=C(C(=O)N1CCN(c2cccc3[nH]ccc23)CC1)c1c[nH]c2cc(Cl)ccc12` has a melting point of 229 to 231 °C.
For `O=C(O)c1ccc2c(=O)nc(-c3ccccn3)sc2c1`, the melting point was 295 °C.
With `CCC(O)CC(O)CC` (stereo unspecified) the melting point was 60 to 65 °C.
For `O=C1c2c(Cl)cccc2-n2cnc(-c3nc(C4CC4)no3)c2[C@@H]2CCCN12`, the melting point was 213 to 214 °C.
Work on `O=C(O)c1cc2c(cc1C(=O)O)COCC2` yielded a melting point of 179 to 181 °C.
`CCn1c(=O)cc(C)c2ccc(OCCCN3CCC(NC(=O)c4ccccc4)CC3)cc21` showed a melting point of 164 to 165 °C.
For `C=Cc1c(C(=O)NC2CC2)nnn1-c1ccc(C(=O)NCC)cc1`, the melting point was 162 °C.
For `COC(=O)c1cc(C(=O)NCC(=O)O)c2cc(Cc3ccc(F)cc3)cnc2c1O`, the melting point was 246 to 247 °C.
Compound `COc1cc(OC)c2c(=O)cc(-c3ccc(C)cc3)oc2c1C1=CCN(C)CC1` has a melting point of 113 to 114 °C.
In the case of `O=C1c2ccccc2C(=O)N1OCc1cn(C(c2ccccc2)(c2ccccc2)c2ccccc2)nn1`, the melting point is reported as 195 to 200 °C.
With `Nc1cccc(C(=O)NCCCn2ccnc2)c1` the melting point was 88 to 90 °C.
In the case of `Cc1c(C#N)c(=O)[nH]c(=O)n1Nc1c(Cl)cc(Cl)cc1Cl`, the melting point is reported as > 305 °C.
`COc1cc(Cl)cc(C(=O)C(F)(F)F)c1N` showed a melting point of 124 to 126 °C.
Work on `O=C(NCc1ccccc1)n1c(=O)sc2c(Cl)cccc21` yielded a melting point of 106 °C.
In the case of `C1=NCC2Cc3ccccc3Cc3cccc1c32` (stereo unspecified), the melting point is reported as 91 to 93 °C.
`CCOC(=O)C1=C(C)Nc2cc[nH]c(=O)c2C1c1cccs1` (stereo unspecified) showed a melting point of 284 to 285 °C.
With `CCOC(N)=C(C#N)C#N` the melting point was 233 °C.
`Cc1cc2c([C@@H]3C[C@H]3CNC(=O)C(F)(F)F)cccn2n1` (relative stereo) gave a melting point of 136 to 138 °C.
